Measurements from patent publication US20240025884A1 (Dong-A ST Co., Ltd., priority 2022, published 2024).

Biological target: GCN2 (Homo sapiens (Human), UniProt Q9P2K8)
Test: GCN2 Biochemical Assay (TR-FRET, GFP-eIF2S1 substrate phosphorylation)
Conditions: read-out: IC50 (GCN2 Inhibitory Activity)
Procedure, shortened: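 TR-FRET readout (Ex 340, Em 490/520 nm) after 2–3 h with Tb-labelled phospho-eIF2S1 antibody in stop mix, following a 70 min room-temperature kinase step. Reaction: in-house GCN2, GFP-eIF2S1, ATP, tRNA in Tris pH 7.5 (2× stocks 1.6 nM, 50 nM, 0.2 mM); compounds tested at 10 concentrations, with a phospho-substrate artifact counter-plate.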

Chain of GCN2 (Q9P2K8 whole entry): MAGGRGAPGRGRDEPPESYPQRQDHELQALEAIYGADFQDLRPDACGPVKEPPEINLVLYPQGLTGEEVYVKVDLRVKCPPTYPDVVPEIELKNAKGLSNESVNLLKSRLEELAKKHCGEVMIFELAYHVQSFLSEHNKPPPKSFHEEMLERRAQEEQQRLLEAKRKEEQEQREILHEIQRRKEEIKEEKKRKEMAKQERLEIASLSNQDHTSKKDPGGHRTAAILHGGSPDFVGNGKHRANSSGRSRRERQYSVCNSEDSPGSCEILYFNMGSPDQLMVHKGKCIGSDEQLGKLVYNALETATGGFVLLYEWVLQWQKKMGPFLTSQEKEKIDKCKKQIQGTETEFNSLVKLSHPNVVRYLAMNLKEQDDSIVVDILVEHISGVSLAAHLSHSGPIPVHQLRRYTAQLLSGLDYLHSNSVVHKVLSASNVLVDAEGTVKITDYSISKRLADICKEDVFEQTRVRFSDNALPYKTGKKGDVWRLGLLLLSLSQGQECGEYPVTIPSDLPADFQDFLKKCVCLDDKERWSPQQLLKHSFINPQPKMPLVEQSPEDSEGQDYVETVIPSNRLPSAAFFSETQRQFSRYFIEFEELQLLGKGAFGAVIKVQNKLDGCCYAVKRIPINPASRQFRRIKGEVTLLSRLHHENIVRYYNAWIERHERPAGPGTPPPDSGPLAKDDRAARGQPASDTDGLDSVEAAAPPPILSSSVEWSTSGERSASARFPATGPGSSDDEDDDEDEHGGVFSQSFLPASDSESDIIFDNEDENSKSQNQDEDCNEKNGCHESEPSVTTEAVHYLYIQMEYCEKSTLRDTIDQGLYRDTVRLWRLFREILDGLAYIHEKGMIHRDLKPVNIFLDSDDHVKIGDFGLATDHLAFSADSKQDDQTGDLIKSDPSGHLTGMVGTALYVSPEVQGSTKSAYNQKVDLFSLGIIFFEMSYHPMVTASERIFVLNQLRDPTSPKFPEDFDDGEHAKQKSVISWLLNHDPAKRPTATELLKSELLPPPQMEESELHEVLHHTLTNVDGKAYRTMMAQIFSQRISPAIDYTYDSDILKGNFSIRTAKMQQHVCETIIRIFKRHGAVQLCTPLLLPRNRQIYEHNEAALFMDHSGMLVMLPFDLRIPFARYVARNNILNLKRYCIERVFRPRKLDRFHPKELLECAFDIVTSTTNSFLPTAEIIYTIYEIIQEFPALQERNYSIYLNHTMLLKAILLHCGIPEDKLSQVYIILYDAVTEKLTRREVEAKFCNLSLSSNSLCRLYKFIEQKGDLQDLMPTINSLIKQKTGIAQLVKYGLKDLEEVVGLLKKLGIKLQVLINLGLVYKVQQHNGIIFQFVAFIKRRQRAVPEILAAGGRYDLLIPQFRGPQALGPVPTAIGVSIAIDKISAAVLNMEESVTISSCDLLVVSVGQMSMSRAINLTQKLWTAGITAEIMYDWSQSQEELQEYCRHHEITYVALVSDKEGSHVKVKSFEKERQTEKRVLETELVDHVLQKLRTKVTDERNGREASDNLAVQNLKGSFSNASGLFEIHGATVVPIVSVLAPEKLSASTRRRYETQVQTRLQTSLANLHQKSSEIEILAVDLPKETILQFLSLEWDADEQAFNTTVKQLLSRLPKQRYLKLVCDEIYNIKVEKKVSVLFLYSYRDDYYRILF

Row | SMILES | IC50
1 | Cc1cnc(Nc2cc(C)n(C)n2)nc1-c1c[nH]c2c(N3Cc4cccc(I)c4C3=O)cccc12 [Example 275, 2-(3-(2-((1,5-dimethyl-1H-pyrazol-3-yl)amino)-5-methylpyrimidin-4-yl)-1H-indol-7-yl)-7-iodoisoindolin-1-one] | 0.01 to 0.1 µM
2 | Cc1cnc(Nc2cc(C)n(C)n2)nc1-c1c[nH]c2c(N3Cc4cccc(N)c4C3=O)cccc12 [Example 276, 7-amino-2-(3-(2-((1,5-dimethyl-1H-pyrazol-3-yl)amino)-5-methylpyrimidin-4-yl)-1H-indol-7-yl)isoindolin-1-one] | 0.01 to 0.1 µM
3 | Cc1cnc(Nc2cc(C)n(C)n2)nc1-c1c[nH]c2c(N3Cc4cccc(Br)c4C3=O)cccc12 [Example 277, 7-bromo-2-(3-(2-((1,5-dimethyl-1H-pyrazol-3-yl)amino)-5-methylpyrimidin-4-yl)-1H-indol-7-yl)isoindolin-1-one] | 0.01 to 0.1 µM
4 | COc1ccc2c(c1)C(=O)N(c1cccc3c(-c4nc(Nc5cc(C)n(C)n5)ncc4C)c[nH]c13)C2 [Example 279, 2-(3-(2-((1,5-dimethyl-1H-pyrazol-3-yl)amino)-5-methylpyrimidin-4-yl)-1H-indol-7-yl)-6-methoxyisoindolin-1-one] | 0.01 to 0.1 µM
5 | COc1cc(OC)c2c(c1)C(=O)N(c1cccc3c(-c4nc(Nc5cc(C)n(C)n5)ncc4C)c[nH]c13)C2 [Example 280, 2-(3-(2-((1,5-dimethyl-1H-pyrazol-3-yl)amino)-5-methylpyrimidin-4-yl)-1H-indol-7-yl)-4,6-dimethoxyisoindolin-1-one] | 0.1 to 1 µM
6 | Cc1cnc(Nc2cc(C)n(C)n2)nc1-c1c[nH]c2c(N3Cc4ccc(Br)cc4C3=O)cccc12 [Example 284, 6-bromo-2-(3-(2-((1,5-dimethyl-1H-pyrazol-3-yl)amino)-5-methylpyrimidin-4-yl)-1H-indol-7-yl)isoindolin-1-one] | 0.01 to 0.1 µM
7 | Cc1cnc(Nc2cc(C)n(C)n2)nc1-c1c[nH]c2c(N3Cc4c(ccnc4Br)C3=O)cccc12 [Example 290, 4-bromo-2-(3-(2-((1,5-dimethyl-1H-pyrazol-3-yl)amino)-5-methylpyrimidin-4-yl)-1H-indol-7-yl)-2,3-dihydro-1H-pyrrolo[3,4-c]pyridin-1-one] | < 0.01 µM
8 | Cc1cnc(Nc2cc(C)n(C)n2)nc1-c1c[nH]c2c(N3Cc4ccc(NC(=O)C5CC5)cc4C3=O)cccc12 [Example 291, N-(2-(3-(2-((1,5-dimethyl-1H-pyrazol-3-yl)amino)-5-methylpyrimidin-4-yl)-1H-indol-7-yl)-3-oxoisoindolin-5-yl)cyclopropanecarboxamide] | < 0.01 µM
9 | Cc1cnc(Nc2cc(C)n(C)n2)nc1-c1c[nH]c2c(N3Cc4cccc(NC(=O)C5CCCCC5)c4C3=O)cccc12 [Example 292, N-(2-(3-(2-((1,5-dimethyl-1H-pyrazol-3-yl)amino)-5-methylpyrimidin-4-yl)-1H-indol-7-yl)-3-oxoisoindolin-4-yl)cyclohexanecarboxamide] | 0.1 to 1 µM
10 | Cc1cnc(Nc2cc(C)n(C)n2)nc1-c1c[nH]c2c(N3Cc4cccc(NC(=O)c5ccccc5)c4C3=O)cccc12 [Example 293, N-(2-(3-(2-((1,5-dimethyl-1H-pyrazol-3-yl)amino)-5-methylpyrimidin-4-yl)-1H-indol-7-yl)-3-oxoisoindolin-4-yl)benzamide] | 0.1 to 1 µM
11 | Cc1cnc(Nc2cc(C)n(C)n2)nc1-c1c[nH]c2c(N3Cc4c(NC(=O)c5ccccc5)cccc4C3=O)cccc12 [Example 294, N-(2-(3-(2-((1,5-dimethyl-1H-pyrazol-3-yl)amino)-5-methylpyrimidin-4-yl)-1H-indol-7-yl)-1-oxoisoindolin-4-yl)benzamide] | 0.01 to 0.1 µM
12 | Cc1cnc(Nc2cc(C)n(C)n2)nc1-c1c[nH]c2c(N3Cc4c(NC(=O)C5CCCCC5)cccc4C3=O)cccc12 [Example 295, N-(2-(3-(2-((1,5-dimethyl-1H-pyrazol-3-yl)amino)-5-methylpyrimidin-4-yl)-1H-indol-7-yl)-1-oxoisoindolin-4-yl)cyclohexanecarboxamide] | 0.01 to 0.1 µM
13 | Cc1cnc(Nc2cc(C)n(C)n2)nc1-c1c[nH]c2c(N3Cc4c(NC(=O)N5CCOCC5)cccc4C3=O)cccc12 [Example 296, N-(2-(3-(2-((1,5-dimethyl-1H-pyrazol-3-yl)amino)-5-methylpyrimidin-4-yl)-1H-indol-7-yl)-1-oxoisoindolin-4-yl)morpholine-4-carboxamide] | < 0.01 µM
14 | Cc1cnc(Nc2cc(C)n(C)n2)nc1-c1c[nH]c2c(N3Cc4c(NC(=O)c5ccccn5)cccc4C3=O)cccc12 [Example 297, N-(2-(3-(2-((1,5-dimethyl-1H-pyrazol-3-yl)amino)-5-methylpyrimidin-4-yl)-1H-indol-7-yl)-1-oxoisoindolin-4-yl)picolinamide] | < 0.01 µM
15 | Cc1cnc(Nc2cc(C)n(C)n2)nc1-c1c[nH]c2c(N3Cc4c(NC(=O)c5cccnc5)cccc4C3=O)cccc12 [Example 298, N-(2-(3-(2-((1,5-dimethyl-1H-pyrazol-3-yl)amino)-5-methylpyrimidin-4-yl)-1H-indol-7-yl)-1-oxoisoindolin-4-yl)nicotinamide] | < 0.01 µM
16 | Cc1cnc(Nc2cc(C)n(C)n2)nc1-c1c[nH]c2c(N3Cc4c(NC(=O)c5cocn5)cccc4C3=O)cccc12 [Example 299, N-(2-(3-(2-((1,5-dimethyl-1H-pyrazol-3-yl)amino)-5-methylpyrimidin-4-yl)-1H-indol-7-yl)-1-oxoisoindolin-4-yl)oxazole-4-carboxamide] | < 0.01 µM
17 | Cc1cnc(Nc2cc(C)n(C)n2)nc1-c1c[nH]c2c(N3Cc4c(NC(=O)C5CC5)cccc4C3=O)cccc12 [Example 300, N-(2-(3-(2-((1,5-dimethyl-1H-pyrazol-3-yl)amino)-5-methylpyrimidin-4-yl)-1H-indol-7-yl)-1-oxoisoindolin-4-yl)cyclopropanecarboxamide] | < 0.01 µM
18 | Cc1cnc(Nc2cc(C)n(C)n2)nc1-c1c[nH]c2c(N3Cc4c(NC(=O)c5ccncc5)cccc4C3=O)cccc12 [Example 301, N-(2-(3-(2-((1,5-dimethyl-1H-pyrazol-3-yl)amino)-5-methylpyrimidin-4-yl)-1H-indol-7-yl)-1-oxoisoindolin-4-yl)isonicotinamide] | < 0.01 µM
19 | Cc1cnc(Nc2cc(C)n(C)n2)nc1-c1c[nH]c2c(N3Cc4c(NC(=O)c5ccnnc5)cccc4C3=O)cccc12 [Example 302, N-(2-(3-(2-((1,5-dimethyl-1H-pyrazol-3-yl)amino)-5-methylpyrimidin-4-yl)-1H-indol-7-yl)-1-oxoisoindolin-4-yl)pyridazine-4-carboxamide] | < 0.01 µM

Second part, the compound after the results:

Row | IC50 | SMILES
20 | < 0.01 µM | Cc1cnc(Nc2cc(C)n(C)n2)nc1-c1c[nH]c2c(N3Cc4cccc([N+](=O)[O-])c4C3=O)cccc12 [Example 274, 2-(3-(2-((1,5-dimethyl-1H-pyrazol-3-yl)amino)-5-methylpyrimidin-4-yl)-1H-indol-7-yl)-7-nitroisoindolin-1-one]
21 | < 0.01 µM | Cc1cnc(Nc2cc(C)n(C)n2)nc1-c1c[nH]c2c(N3Cc4c(I)cccc4C3=O)cccc12 [Example 278, 2-(3-(2-((1,5-dimethyl-1H-pyrazol-3-yl)amino)-5-methylpyrimidin-4-yl)-1H-indol-7-yl)-4-iodoisoindolin-1-one]
22 | < 0.01 µM | Cc1cnc(Nc2cc(C)n(C)n2)nc1-c1c[nH]c2c(N3Cc4c(O)cccc4C3=O)cccc12 [Example 281, 2-(3-(2-((1,5-dimethyl-1H-pyrazol-3-yl)amino)-5-methylpyrimidin-4-yl)-1H-indol-7-yl)-4-hydroxyisoindolin-1-one]
23 | < 0.01 µM | Cc1cnc(Nc2cc(C)n(C)n2)nc1-c1c[nH]c2c(N3Cc4cccc(F)c4C3=O)cccc12 [Example 282, 2-(3-(2-((1,5-dimethyl-1H-pyrazol-3-yl)amino)-5-methylpyrimidin-4-yl)-1H-indol-7-yl)-7-fluoroisoindolin-1-one]
24 | < 0.01 µM | Cc1cnc(Nc2cc(C)n(C)n2)nc1-c1c[nH]c2c(N3Cc4c(Br)ccc(F)c4C3=O)cccc12 [Example 283, 4-bromo-2-(3-(2-((1,5-dimethyl-1H-pyrazol-3-yl)amino)-5-methylpyrimidin-4-yl)-1H-indol-7-yl)-7-fluoroisoindolin-1-one]
25 | < 0.01 µM | Cc1cnc(Nc2cc(C)n(C)n2)nc1-c1c[nH]c2c(N3Cc4cc(Br)cnc4C3=O)cccc12 [Example 285, 3-bromo-6-(3-(2-((1,5-dimethyl-1H-pyrazol-3-yl)amino)-5-methylpyrimidin-4-yl)-1H-indol-7-yl)-5,6-dihydro-7H-pyrrolo[3,4-b]pyridin-7-one]
26 | < 0.01 µM | Cc1cnc(Nc2cc(C)n(C)n2)nc1-c1c[nH]c2c(N3Cc4c(Br)ccnc4C3=O)cccc12 [Example 286, 4-bromo-6-(3-(2-((1,5-dimethyl-1H-pyrazol-3-yl)amino)-5-methylpyrimidin-4-yl)-1H-indol-7-yl)-5,6-dihydro-7H-pyrrolo[3,4-b]pyridin-7-one]
27 | < 0.01 µM | Cc1cnc2c(c1)CN(c1cccc3c(-c4nc(Nc5cc(C)n(C)n5)ncc4C)c[nH]c13)C2=O [Example 287, 6-(3-(2-((1,5-dimethyl-1H-pyrazol-3-yl)amino)-5-methylpyrimidin-4-yl)-1H-indol-7-yl)-3-methyl-5,6-dihydro-7H-pyrrolo[3,4-b]pyridin-7-one]
28 | < 0.01 µM | Cc1cnc(Nc2cc(C)n(C)n2)nc1-c1c[nH]c2c(N3Cc4cccnc4C3=O)cccc12 [Example 288, 6-(3-(2-((1,5-dimethyl-1H-pyrazol-3-yl)amino)-5-methylpyrimidin-4-yl)-1H-indol-7-yl)-5,6-dihydro-7H-pyrrolo[3,4-b]pyridin-7-one]
29 | < 0.01 µM | Cc1cnc(Nc2cc(C)n(C)n2)nc1-c1c[nH]c2c(N3Cc4c(Br)cncc4C3=O)cccc12 [Example 289, 7-bromo-2-(3-(2-((1,5-dimethyl-1H-pyrazol-3-yl)amino)-5-methylpyrimidin-4-yl)-1H-indol-7-yl)-1,2-dihydro-3H-pyrrolo[3,4-c]pyridin-3-one]
